According to paper PMC11808397, “Development of selective nanomolar cyclic peptide ligands as GBA1 enzyme stabilisers” (RSC Chemical Biology, 2025):
Where a chain is given by its changes, count along the chain named. Positions of bridges follow the written chain, without caps; N, C: chain ends. Non-standard residues stand in square brackets, D forms with d. Residues, ends and D or L forms follow the SMILES beside them.

Assays:
[1] = target: T1, recombinant human GBA1 (rhGBA1, Cerezyme) (Homo sapiens, UniProt P04062, R534H); experiment: rhGBA1 Ki / kinetic studies with varied 4-MU substrate; assay type: biochemical; conditions: 4MU substrate 0.05-5 mM, no pre-incubation, mean ± SD from 3 technical triplicates
T1 construct: purchased Cerezyme
T1 sequence (P04062 40-536 R534H): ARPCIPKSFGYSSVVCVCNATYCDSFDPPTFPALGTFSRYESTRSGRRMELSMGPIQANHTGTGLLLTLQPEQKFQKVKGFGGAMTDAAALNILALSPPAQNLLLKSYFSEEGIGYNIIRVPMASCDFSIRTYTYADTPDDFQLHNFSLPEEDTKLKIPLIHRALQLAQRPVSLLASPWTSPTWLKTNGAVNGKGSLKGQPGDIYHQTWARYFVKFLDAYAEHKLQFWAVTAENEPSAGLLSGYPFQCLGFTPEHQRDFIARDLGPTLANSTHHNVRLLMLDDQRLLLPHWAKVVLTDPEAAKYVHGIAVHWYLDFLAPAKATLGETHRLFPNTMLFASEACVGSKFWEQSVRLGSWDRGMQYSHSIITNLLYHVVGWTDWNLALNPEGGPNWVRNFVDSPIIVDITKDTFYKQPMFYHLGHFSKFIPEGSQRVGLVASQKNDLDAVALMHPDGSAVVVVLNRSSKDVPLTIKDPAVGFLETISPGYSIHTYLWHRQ
Method: Based on the pull-down validation, a set of eight cyclic peptides (L1, L2, L4, L6, D1, D8, D12 and D13) were identified, synthesized, and evaluated for their inhibitory potency against recombinant human GBA1 (rhGBA1, Cerezyme®) and their selectivity over human β-glucosidases GBA2 and GBA3. Half-maximum inhibitory concentration (IC50) values for β-glucosidases were determined in vitro by measuring hydrolysis of 4-methylumbelliferyl-β-D-glucopyranoside (4-MU-β-D-Glu) fluorogenic substrate.
Selective Cyclic Peptide Ligands as GBA1 Stabilizers Katzy et al.
Figure S4. Inhibitory constant (Ki) values using increasing concentrations of 4-MU-beta-glucoside as fluorogenic substrate. Enzyme activity (nmol h-1 mg-1) versus MU substrate concentrations is plotted (See Table 1 for Ki values) for inhibitors L2, L4, L6, D1, D8, and D12, and corresponding Lineweaver Burk plots are shown on the right.
(1 picture or pasted object on this page, not shown here)
GBA1 Ki values were determined using the same incubation times and buffers as described above following a previously described protocol.6 4MU-β-D-glucopyranoside concentration was varied […]
between 0.05 mM and 5 mM. […]
(§1) 2.8. Thermostability assays in rhGBA (Cerezyme)
(§2) Varying concentrations of peptides were incubated with 1 µM rhGBA1 in 20 mM HEPES pH 7.0 with 100 mM NaCl, with a final DMSO concentration of 0.5 %, for 2 hours at room temperature. Melting

[2] = target: T2, GBA1 in fibroblast lysates (Homo sapiens, UniProt P04062); experiment: GBA1 inhibition in lysates of fibroblasts treated with peptides; assay type: cell-based; conditions: cells treated with peptides at increasing concentrations for 16 h, washed with PBS and homogenized; 4-MU assay
T2 construct: host or cells: human dermal fibroblasts
T2 sequence (P04062 40-536): T1 sequence (P04062 40-536 R534H) with H495R
Method: We further investigated GBA1 inhibition in cells. Human dermal fibroblasts were initially incubated with peptide concentrations ranging from 0.1 μM (from 0.001 μM for L4, D1 and D12) to 100 μM of each cyclic peptide for […]. […] To further confirm the inability of these peptides to cross the cell membrane, we conducted in situ competitive activity-based protein profiling (cABPP) experiments using RAW 264.7 monocyte/macrophage-like cells. […] RAW 264.7 cells were then treated with increasing concentrations of cyclic peptides (0, 0.1, 1, 10, and 100 μM) for 4 hours, followed by exposure to a cell-penetrant Bodipy red broad spectrum GBA activity-based probe (ABP), JJB75[58] at 10 nM for 2 hours (Fig. S5 for chemical structures, ESI ^†). […] This cABPP experiment further confirms that the peptides are unable to cross the cell membrane (Fig. S6, ESI ^†).
Selective Cyclic Peptide Ligands as GBA1 Stabilizers Katzy et al. […]
Table S1. IC50 values for GBA1 inhibition in fibroblast lysates. Cells were treated with the peptides at increasing concentrations for 16 h, washed with PBS and homogenized. Reported values are mean ± standard deviation from 3 technical triplicates. N.D.: not determined.
Peptide GBA1 in fibroblast lysates
(1 picture or pasted object on this page, not shown here) […]
2.6. In situ cell studies
Human fibroblasts (Cambrex-Lonza CC-2511) were cultured in complete DMEM/F12 growth medium supplemented with 10% (v/v) foetal calf serum and 0.1 % (w/v) penicillin/streptomycin at 37 °C and 5% CO2. Cells were seeded in 12-well plates during passage and the incubations were started when cells were 80% - 100% confluent. Peptides were added in 500 µL medium (10 and 50 µM final concentration) and incubated overnight. After incubation cells were washed three times with cold PBS and harvested in 30 µL lysis buffer (25 mM KPi, pH 6,5 supplemented with 0.1% Triton-X 100 (v/v) and protease inhibitor). Lysates were frozen at -80 °C until use. GlcCer and GlcSph lipids were quantified as described below. In parallel, enzyme activity in cell lysates was measured using 3.7 mM 4-methylumbeliferone (4MU)-β-D-glucopyranoside in 150 mM McIlvaine buffer pH 5.2 supplemented with 0.1% bovine serum albumin (BSA) (w/v), 0.1% Triton X-100 (v/v), and 0.2% sodium taurocholate (w/v) as described above (see Table S1). […]
PBS and harvested in ice cold water. Lysates were kept at -80 °C until extraction.
2.7. 2.5. GlcCer and GlcSph lipid analysis
Levels of GlcCer and GlcSph were determined with a modified acidic Bligh & Dyer extraction (Figure 2 and S5).7 Briefly, after addition of internal standards (C17-dh-Ceramide and 13C5-Glucosylsphingosine), lipids were separated in an organic and an aqueous phase. The separated phases were dried under N2 or in a concentrator. The dried organic lower phase was reconstituted in 0.1 M NaOH in MeOH and underwent microwave-assisted deacylation. After neutralization, the samples were dried. Both phases were further extracted and desalted with equal amounts of water and butanol. The butanol phases were taken up to dryness and the lipids were dissolved in MeOH and transferred to MS vials for analysis in a LC-MS/MS system as described previously.7
as §1, §2

| Structure (SMILES) | Ki [1] [nM] | IC50 [2] [nM] |
| --- | --- | --- |
| CC[C@H](C)[C@H](NC(=O)[C@H](CC(C)C)NC(=O)[C@H](Cc1ccc(O)cc1)NC(=O)[C@H](Cc1ccc(O)cc1)NC(=O)[C@@H]1CSCC(=O)N[C@H](Cc2ccc(O)cc2)C(=O)N[C@@H](CCCNC(=N)N)C(=O)N[C@@H](C(C)C)C(=O)N1)C(=O)N[C@H](C(=O)N[C@H](C(=O)N[C@@H](CC(C)C)C(=O)N[C@@H](CC(=O)O)C(=O)N[C@@H](CS)C(N)=O)C(C)C)[C@@H](C)O [D1] ({CH2CO}-[dY]RVCYYLITVLDC-NH2; thioether N-4) | 0.9 ± 0.1 | 440 |
| CC(C)C[C@H](NC(=O)[C@@H](NC(=O)[C@H](CCCNC(=N)N)NC(=O)[C@@H]1CSCC(=O)N[C@H](Cc2ccc(O)cc2)C(=O)N[C@@H]([C@@H](C)O)C(=O)N2CCC[C@H]2C(=O)NCC(=O)N[C@@H](Cc2ccc(O)cc2)C(=O)N[C@@H](C(C)C)C(=O)N[C@@H](Cc2ccc(O)cc2)C(=O)N1)C(C)C)C(=O)N[C@@H](CCCCN)C(=O)N[C@@H](Cc1ccc(O)cc1)C(=O)N[C@@H](CS)C(N)=O [D8] ({CH2CO}-[dY]TPGYVYCRVLKYC-NH2; thioether N-8) | 13 ± 4 | 5160 |
| CC(C)C[C@@H]1NC(=O)CNC(=O)[C@H](CC(C)C)NC(=O)[C@@H](Cc2ccc(O)cc2)NC(=O)CSC[C@@H](C(N)=O)NC(=O)[C@H](CO)NC(=O)[C@H](CCCCN)NC(=O)[C@H](CC(C)C)NC(=O)[C@H](Cc2ccccc2)NC(=O)[C@H](CCCNC(=N)N)NC(=O)[C@H](Cc2ccc(O)cc2)NC(=O)[C@H](Cc2c[nH]c3ccccc23)NC1=O [D12] ({CH2CO}-[dY]LGLWYRFLKSC-NH2; thioether N-12) | 1 ± 0.4 | 334 |

Results, then the compound that gave them:

| Ki [1] [nM] | IC50 [2] [nM] | Structure (SMILES) |
| --- | --- | --- |
|  | 39700 | CC[C@H](C)[C@@H]1NC(=O)[C@H](CO)NC(=O)[C@H](CS)NC(=O)CNC(=O)CNC(=O)[C@H](CC(C)C)NC(=O)[C@H](Cc2ccc(O)cc2)NC(=O)[C@H](C(C)C)NC(=O)[C@H](CC(C)C)NC(=O)[C@H](CCCNC(=N)N)NC(=O)[C@@H]2CCCN2C(=O)[C@H](Cc2ccc(O)cc2)NC(=O)CSC[C@@H](C(N)=O)NC(=O)[C@H](CCC(=O)O)NC(=O)[C@H](CC(C)C)NC(=O)[C@H](CC(C)C)NC1=O [L1] ({CH2CO}-YPRLVYLGGCSILLEC-NH2; thioether N-16) |
| 42 ± 7 | 898 | CC[C@H](C)[C@H](NC(=O)[C@H](CCCNC(=N)N)NC(=O)[C@@H]1CSCC(=O)N[C@@H](Cc2ccc(O)cc2)C(=O)N[C@@H](C)C(=O)N[C@@H](Cc2ccc(O)cc2)C(=O)N[C@@H](Cc2c[nH]c3ccccc23)C(=O)N[C@@H](Cc2c[nH]c3ccccc23)C(=O)N[C@@H](CC(C)C)C(=O)N1)C(=O)N1CCC[C@H]1C(=O)N[C@@H](Cc1c[nH]c2ccccc12)C(=O)N[C@@H](CC(C)C)C(=O)N[C@@H](CO)C(=O)N[C@H](C(N)=O)C(C)C [L2] ({CH2CO}-YAYWWLCRIPWLSV-NH2; thioether N-7) |
| 2 ± 1 | 67 | CC(C)C[C@@H]1NC(=O)CNC(=O)[C@H](Cc2ccccc2)NC(=O)[C@H](CC(C)C)NC(=O)[C@@H]2CCCN2C(=O)[C@H](Cc2ccc(O)cc2)NC(=O)CSC[C@@H](C(=O)N2CCC[C@H]2C(=O)N[C@@H](CC(N)=O)C(=O)N[C@@H](Cc2c[nH]c3ccccc23)C(=O)N[C@@H](Cc2ccccc2)C(=O)N2CCC[C@H]2C(=O)N[C@@H](Cc2ccc(O)cc2)C(=O)N[C@@H](CCC(N)=O)C(=O)N[C@@H](CS)C(N)=O)NC(=O)[C@H](CO)NC(=O)[C@H](Cc2ccccc2)NC1=O [L4] ({CH2CO}-YPLFGLFSCPNWFPYQC-NH2; thioether N-9) |
| 1340 ± 203 | 22300 | CC[C@H](C)[C@@H]1NC(=O)[C@H](Cc2ccc(O)cc2)NC(=O)CSC[C@@H](C(N)=O)NC(=O)[C@H](Cc2c[nH]c3ccccc23)NC(=O)[C@H](CCC(N)=O)NC(=O)[C@H]([C@@H](C)CC)NC(=O)[C@H]([C@@H](C)CC)NC(=O)[C@@H]2CCCN2C(=O)[C@H](C(C)C)NC(=O)[C@H](Cc2ccc(O)cc2)NC(=O)[C@H](Cc2c[nH]c3ccccc23)NC(=O)[C@H](CO)NC1=O [L6] ({CH2CO}-YISWYVPIIQWC-NH2; thioether N-12) |
